Measured values: ChEMBL document CHEMBL1201862, “PubChem BioAssay data set” (2004)
Calls of active or inactive are those of the source.

How the values were obtained:
[1] = biological target: T1, Caspase-6 (Homo sapiens, UniProt P55212); assay: inhibition of CASP6 peptide cleavage – biochemical, VEID-R110 fluorescence, cherry-pick, dose response (AID 720632)
T1 sequence (P55212 whole entry): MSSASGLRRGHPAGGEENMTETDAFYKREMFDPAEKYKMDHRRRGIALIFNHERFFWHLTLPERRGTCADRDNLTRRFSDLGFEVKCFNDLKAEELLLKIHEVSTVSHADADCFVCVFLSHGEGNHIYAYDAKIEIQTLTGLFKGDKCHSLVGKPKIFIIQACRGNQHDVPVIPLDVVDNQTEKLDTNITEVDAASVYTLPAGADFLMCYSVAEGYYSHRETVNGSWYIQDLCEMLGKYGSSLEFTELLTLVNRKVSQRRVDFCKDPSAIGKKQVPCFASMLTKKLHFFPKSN

[2] = biological target: Protein kinase C zeta type (Homo sapiens, UniProt Q05513); format: functional;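 also: measured as one member of a broad kinase profiling panel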
[3] = biological target: Dual specificity protein kinase CLK4 (Homo sapiens, UniProt Q9HAZ1); format: functional
[4] = biological target: MAP/microtubule affinity-regulating kinase 3 (Homo sapiens, UniProt P27448); format: functional;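 also: MARK3 affinity measured as one member of a kinome panel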
[5] = biological target: SRSF protein kinase 1 (Homo sapiens, UniProt Q96SB4); format: functional;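 also: measured as one member of a kinome-wide kinase profiling panel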
[6] = biological target: Serine/threonine-protein kinase PAK 1 (Homo sapiens, UniProt Q13153); format: functional
[7] = biological target: Calcium/calmodulin-dependent protein kinase type 1 (Homo sapiens, UniProt Q14012); format: functional
[8] = biological target: Dual specificity tyrosine-phosphorylation-regulated kinase 3 (Homo sapiens, UniProt O43781); format: functional;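 also: measured as one member of a broad kinase panel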
[9] = biological target: Serine/threonine-protein kinase TBK1 (Homo sapiens, UniProt Q9UHD2); assay: Navigating the Kinome. Panel member name: TBK1; format: functional
[10] = biological target: Insulin receptor (Homo sapiens, UniProt P06213); format: functional;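 also: insulin receptor kinase tested as one member of a kinome-wide kinase panel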
[11] = biological target: Serine/threonine-protein kinase pim-3 (Homo sapiens, UniProt Q86V86); format: functional;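 also: value obtained as one member of a broad kinase panel profiling effort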
[12] = biological target: MAP kinase-activated protein kinase 5 (Homo sapiens, UniProt Q8IW41); format: functional;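 also: measured as one member of a kinome panel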
[13] = biological target: Serine/threonine-protein kinase D3 (Homo sapiens, UniProt O94806); format: functional;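 also: determined within a kinase panel screen, with PRKCN as the panel member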
[14] = biological target: Eukaryotic elongation factor 2 kinase (Homo sapiens, UniProt O00418); format: functional
[15] = biological target: Serine/threonine-protein kinase Chk2 (Homo sapiens, UniProt O96017); format: functional;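 also: CHEK2 entry within a kinome-wide screening panel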
[16] = biological target: Glycogen synthase kinase-3 alpha (Homo sapiens, UniProt P49840); format: functional;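 also: GSK3A result taken from a broad kinome-wide kinase panel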
[17] = biological target: Homeodomain-interacting protein kinase 2 (Homo sapiens, UniProt Q9H2X6); format: functional;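 also: measured within a kinome-wide kinase profiling panel, HIPK2 being one panel member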
[18] = biological target: Receptor tyrosine-protein kinase erbB-4 (Homo sapiens, UniProt Q15303); format: functional;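 also: ERBB4 member of a kinome-wide kinase profiling panel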
[19] = biological target: Testis-specific serine/threonine-protein kinase 1 (Homo sapiens, UniProt Q9BXA7); format: functional
[20] = biological target: 5'-AMP-activated protein kinase catalytic subunit alpha-1 (Homo sapiens, UniProt Q13131); format: functional
[21] = biological target: T2, Sentrin-specific protease 8 (Homo sapiens, UniProt Q96LD8); assay: inhibition of human SENP8 cleavage activity – biochemical, luminescence, SAR follow-up (AID 504501); format: functional
T2 sequence (Q96LD8 whole entry): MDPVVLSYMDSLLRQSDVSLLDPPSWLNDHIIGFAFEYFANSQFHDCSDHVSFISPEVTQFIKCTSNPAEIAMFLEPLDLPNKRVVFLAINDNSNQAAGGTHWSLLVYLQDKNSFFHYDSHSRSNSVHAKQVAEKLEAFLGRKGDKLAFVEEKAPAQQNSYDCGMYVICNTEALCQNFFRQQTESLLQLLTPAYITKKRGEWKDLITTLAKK

[22] = biological target: T3, Apoptotic protease-activating factor 1 (Homo sapiens, UniProt O14727); format: functional
T3 sequence (O14727 whole entry): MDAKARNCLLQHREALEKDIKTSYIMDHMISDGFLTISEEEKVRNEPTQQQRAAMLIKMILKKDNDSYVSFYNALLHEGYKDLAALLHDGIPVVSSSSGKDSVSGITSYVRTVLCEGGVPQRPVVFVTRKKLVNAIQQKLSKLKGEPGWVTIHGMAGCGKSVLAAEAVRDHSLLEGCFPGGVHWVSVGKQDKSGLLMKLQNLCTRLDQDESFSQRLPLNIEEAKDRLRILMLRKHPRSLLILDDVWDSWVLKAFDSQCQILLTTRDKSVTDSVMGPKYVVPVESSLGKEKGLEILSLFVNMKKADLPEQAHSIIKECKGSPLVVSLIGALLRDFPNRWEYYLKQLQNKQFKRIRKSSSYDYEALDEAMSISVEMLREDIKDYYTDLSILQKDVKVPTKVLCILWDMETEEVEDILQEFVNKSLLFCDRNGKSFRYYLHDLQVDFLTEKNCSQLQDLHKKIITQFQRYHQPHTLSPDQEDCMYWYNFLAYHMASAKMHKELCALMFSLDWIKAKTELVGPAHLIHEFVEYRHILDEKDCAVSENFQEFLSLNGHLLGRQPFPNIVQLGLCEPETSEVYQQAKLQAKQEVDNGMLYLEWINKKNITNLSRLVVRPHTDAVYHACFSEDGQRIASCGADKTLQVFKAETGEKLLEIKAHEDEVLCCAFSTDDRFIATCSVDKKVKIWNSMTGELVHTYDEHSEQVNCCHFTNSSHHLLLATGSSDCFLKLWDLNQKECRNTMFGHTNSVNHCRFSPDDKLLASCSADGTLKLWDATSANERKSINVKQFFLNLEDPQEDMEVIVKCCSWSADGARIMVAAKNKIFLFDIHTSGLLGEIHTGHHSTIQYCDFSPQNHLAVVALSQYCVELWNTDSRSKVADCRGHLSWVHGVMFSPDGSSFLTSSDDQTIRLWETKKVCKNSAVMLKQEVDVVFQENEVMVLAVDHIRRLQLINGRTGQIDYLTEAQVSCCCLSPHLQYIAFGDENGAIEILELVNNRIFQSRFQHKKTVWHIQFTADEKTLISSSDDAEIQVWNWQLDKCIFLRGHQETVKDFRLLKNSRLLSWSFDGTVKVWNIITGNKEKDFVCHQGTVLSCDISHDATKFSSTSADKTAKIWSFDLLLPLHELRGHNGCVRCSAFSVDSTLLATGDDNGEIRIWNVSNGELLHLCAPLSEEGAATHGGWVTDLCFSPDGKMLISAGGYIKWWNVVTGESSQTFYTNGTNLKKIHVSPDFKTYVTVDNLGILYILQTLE

Chain of Homeodomain-interacting protein kinase 2 (Q9H2X6 whole entry): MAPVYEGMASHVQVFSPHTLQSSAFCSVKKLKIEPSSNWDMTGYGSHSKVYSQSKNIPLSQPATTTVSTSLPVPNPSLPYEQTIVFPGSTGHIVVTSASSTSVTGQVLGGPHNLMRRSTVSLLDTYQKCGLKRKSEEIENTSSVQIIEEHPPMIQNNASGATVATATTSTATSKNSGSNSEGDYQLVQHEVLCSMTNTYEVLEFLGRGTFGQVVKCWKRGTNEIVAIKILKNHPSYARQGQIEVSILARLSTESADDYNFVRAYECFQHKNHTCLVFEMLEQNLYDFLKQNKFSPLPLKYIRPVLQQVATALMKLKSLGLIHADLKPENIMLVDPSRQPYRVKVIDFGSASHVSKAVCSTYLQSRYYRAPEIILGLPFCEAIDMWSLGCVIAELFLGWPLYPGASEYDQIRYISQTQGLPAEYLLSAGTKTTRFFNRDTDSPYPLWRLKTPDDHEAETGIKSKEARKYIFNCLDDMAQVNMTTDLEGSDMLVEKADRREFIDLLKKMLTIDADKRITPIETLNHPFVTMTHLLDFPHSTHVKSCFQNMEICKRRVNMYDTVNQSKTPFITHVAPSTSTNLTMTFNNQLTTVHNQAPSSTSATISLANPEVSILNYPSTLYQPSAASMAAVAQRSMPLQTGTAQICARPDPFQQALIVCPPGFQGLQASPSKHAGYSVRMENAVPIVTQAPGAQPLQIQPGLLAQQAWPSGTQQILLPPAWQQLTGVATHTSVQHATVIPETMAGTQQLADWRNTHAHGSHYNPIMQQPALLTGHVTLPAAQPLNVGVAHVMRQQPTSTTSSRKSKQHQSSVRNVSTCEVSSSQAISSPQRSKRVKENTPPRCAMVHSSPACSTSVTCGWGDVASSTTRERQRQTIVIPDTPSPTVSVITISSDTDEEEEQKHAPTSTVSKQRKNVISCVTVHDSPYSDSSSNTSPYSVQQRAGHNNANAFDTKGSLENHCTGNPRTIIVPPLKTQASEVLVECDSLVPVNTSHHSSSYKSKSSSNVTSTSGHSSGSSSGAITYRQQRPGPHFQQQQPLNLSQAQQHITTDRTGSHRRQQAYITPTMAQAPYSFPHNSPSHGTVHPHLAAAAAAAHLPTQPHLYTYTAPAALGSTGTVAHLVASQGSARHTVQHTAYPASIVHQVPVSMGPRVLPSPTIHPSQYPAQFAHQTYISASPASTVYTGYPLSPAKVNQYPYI
Chain of Receptor tyrosine-protein kinase erbB-4 (Q15303 whole entry): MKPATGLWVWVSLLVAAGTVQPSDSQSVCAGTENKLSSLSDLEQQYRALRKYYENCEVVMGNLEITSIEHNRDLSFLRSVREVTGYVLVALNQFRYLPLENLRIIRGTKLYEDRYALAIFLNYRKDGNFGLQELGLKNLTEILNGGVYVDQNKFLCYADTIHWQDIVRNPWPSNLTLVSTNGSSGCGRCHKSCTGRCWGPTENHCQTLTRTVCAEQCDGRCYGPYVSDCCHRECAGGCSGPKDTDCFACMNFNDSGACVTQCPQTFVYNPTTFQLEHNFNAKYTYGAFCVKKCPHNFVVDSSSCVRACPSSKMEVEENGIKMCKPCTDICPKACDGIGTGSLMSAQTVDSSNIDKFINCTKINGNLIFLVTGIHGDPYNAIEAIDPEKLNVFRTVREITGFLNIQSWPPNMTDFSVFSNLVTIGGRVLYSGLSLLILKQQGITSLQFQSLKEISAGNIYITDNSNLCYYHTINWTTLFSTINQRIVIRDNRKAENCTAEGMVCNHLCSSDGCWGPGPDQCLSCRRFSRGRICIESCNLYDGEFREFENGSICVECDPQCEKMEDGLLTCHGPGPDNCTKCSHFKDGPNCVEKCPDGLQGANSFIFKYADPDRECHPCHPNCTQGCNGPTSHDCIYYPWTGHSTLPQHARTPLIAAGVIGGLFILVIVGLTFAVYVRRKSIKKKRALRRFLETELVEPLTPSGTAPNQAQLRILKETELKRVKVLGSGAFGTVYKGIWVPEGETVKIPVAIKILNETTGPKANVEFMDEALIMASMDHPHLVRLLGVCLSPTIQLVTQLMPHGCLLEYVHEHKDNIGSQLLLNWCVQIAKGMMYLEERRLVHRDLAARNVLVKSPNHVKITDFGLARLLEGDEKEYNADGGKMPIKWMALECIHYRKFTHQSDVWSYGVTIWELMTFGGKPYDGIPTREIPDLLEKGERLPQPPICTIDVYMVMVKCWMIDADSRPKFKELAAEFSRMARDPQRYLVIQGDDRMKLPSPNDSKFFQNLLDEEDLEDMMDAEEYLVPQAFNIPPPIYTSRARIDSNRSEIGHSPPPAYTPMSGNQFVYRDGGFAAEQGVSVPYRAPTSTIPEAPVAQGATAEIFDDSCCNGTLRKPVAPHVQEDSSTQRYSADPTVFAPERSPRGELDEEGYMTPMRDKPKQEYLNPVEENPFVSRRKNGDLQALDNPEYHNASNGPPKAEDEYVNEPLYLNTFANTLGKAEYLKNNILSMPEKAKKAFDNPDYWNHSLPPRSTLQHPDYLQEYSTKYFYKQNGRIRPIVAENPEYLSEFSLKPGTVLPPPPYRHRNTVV
Chain of Protein kinase C zeta type (Q05513 whole entry): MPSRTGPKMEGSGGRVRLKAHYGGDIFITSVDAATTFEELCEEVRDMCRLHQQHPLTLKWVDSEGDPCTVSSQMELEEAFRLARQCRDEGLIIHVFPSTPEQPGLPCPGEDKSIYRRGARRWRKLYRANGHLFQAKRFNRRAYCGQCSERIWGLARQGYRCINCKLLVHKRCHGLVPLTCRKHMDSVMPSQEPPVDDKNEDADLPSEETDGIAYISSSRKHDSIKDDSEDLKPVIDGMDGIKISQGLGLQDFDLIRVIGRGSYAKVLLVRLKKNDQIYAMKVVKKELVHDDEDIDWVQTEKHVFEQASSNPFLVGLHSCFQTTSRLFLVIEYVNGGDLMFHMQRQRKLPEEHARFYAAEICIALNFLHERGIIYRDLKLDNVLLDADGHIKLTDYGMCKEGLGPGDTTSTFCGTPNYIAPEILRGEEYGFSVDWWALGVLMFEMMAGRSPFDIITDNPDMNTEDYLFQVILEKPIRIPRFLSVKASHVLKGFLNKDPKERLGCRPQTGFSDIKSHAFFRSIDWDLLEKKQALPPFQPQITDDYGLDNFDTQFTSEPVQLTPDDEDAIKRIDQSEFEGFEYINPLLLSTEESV
Chain of MAP kinase-activated protein kinase 5 (Q8IW41 whole entry): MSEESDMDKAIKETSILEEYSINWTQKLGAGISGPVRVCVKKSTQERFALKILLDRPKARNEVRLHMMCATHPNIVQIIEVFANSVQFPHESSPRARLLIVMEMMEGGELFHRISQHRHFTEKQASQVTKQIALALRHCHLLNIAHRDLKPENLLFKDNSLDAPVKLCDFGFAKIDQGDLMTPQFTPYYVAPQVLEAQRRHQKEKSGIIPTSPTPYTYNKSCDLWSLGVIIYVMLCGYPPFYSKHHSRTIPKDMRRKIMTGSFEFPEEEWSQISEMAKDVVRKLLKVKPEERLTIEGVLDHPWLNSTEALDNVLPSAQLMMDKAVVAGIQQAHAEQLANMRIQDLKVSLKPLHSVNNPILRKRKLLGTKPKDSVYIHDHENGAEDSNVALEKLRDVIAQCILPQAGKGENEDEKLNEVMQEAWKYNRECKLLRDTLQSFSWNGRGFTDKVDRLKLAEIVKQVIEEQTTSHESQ
Chain of Serine/threonine-protein kinase D3 (O94806 whole entry): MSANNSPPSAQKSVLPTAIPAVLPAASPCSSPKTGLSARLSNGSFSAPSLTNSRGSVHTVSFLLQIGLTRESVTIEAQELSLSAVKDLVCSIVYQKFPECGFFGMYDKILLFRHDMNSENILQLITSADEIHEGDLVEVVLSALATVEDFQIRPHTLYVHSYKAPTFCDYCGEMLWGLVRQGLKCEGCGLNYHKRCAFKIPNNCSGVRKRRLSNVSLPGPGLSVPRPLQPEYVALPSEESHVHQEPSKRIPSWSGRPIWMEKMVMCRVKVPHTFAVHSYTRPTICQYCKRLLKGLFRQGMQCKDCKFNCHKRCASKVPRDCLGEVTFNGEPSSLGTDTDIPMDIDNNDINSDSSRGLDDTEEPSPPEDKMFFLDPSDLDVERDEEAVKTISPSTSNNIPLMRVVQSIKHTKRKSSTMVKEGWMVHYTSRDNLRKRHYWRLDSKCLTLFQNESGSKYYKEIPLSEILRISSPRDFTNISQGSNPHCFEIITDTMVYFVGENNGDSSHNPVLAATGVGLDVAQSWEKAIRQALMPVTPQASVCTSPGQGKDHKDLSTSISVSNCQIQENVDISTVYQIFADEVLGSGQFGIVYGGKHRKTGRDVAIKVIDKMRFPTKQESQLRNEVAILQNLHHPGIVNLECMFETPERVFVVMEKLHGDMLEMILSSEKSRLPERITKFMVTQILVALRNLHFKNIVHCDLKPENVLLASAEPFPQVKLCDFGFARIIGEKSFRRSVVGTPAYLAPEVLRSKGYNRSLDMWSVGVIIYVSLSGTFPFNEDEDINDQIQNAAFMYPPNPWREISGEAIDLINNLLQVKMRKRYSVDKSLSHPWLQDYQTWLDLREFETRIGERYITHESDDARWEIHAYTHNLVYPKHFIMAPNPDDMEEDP
Chain of Dual specificity protein kinase CLK4 (Q9HAZ1 whole entry): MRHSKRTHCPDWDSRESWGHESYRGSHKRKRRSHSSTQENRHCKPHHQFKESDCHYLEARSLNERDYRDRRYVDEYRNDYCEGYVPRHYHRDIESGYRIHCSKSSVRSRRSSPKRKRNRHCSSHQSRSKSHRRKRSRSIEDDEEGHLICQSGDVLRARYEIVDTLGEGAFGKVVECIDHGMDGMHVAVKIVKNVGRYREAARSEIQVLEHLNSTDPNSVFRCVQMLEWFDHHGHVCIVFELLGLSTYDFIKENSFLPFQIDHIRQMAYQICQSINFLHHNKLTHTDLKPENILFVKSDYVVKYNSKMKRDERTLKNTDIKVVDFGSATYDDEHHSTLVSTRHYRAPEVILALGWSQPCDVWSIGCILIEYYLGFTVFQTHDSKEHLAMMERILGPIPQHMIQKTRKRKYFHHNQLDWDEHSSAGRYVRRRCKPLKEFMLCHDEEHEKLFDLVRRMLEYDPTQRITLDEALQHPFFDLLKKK

## Cc1c(NC(=O)C(C)OC(=O)c2ccc([N+](=O)[O-])s2)c(=O)n(-c2ccccc2)n1C (configuration not stated)
[1]
  AC50: 4.82 µM (active)

## CC(N)C1CCC(C(=O)Nc2ccnc3[nH]ccc23)CC1 (configuration not stated)
[2]
  Ki: > 7.94 µM (inactive)
[3]
  Ki: 0.158 µM (active)
[4]
  Ki: > 5.01 µM (inactive)
[5]
  Ki: > 7.94 µM (inactive)
[6]
  Ki: > 10 µM (inactive)
[7]
  Ki: > 1.58 µM (inactive)
[8]
  Ki: > 6.31 µM (inactive)
[9]
  Ki: > 3.16 µM (inactive)
[10]
  Ki: > 5.01 µM (inactive)
[11]
  Ki: > 7.94 µM (inactive)
[12]
  Ki: > 1.58 µM (inactive)
[13]
  Ki: 0.398 µM (active)
[14]
  Ki: > 3.98 µM (inactive)
[15]
  Ki: > 1.58 µM (inactive)
[16]
  Ki: > 6.31 µM (inactive)
[17]
  Ki: > 3.16 µM (inactive)
[18]
  Ki: > 3.98 µM (inactive)
[19]
  Ki: > 1.58 µM (inactive)
[20]
  Ki: > 2.51 µM (inactive)

## COc1cc(Br)c(C(=O)c2nccc3cc(OC)c(OC)cc23)cc1OC
[21]
  IC50: 35.6 µM (active)
[22]
  IC50: 7.37 µM (active)
